Measured values as given in ChEMBL document CHEMBL2202993, “Non-proteinogenic amino acids in the pThr-2 position of a pentamer peptide that confer high binding affinity for the polo box domain (PBD) of polo-like kinase 1 (Plk1)” (Bioorg Med Chem Lett, 2012).
Numbered stars: 1 amine (or outer) side, 2 acyl side, 3 side chain; on linkers, the order of the positions; unused ones are H or OH. Square brackets hold non-standard residues; d marks the D form. Peptide text beside a SMILES is read from it. X2 = O=C([C@H](Cc1cn(CCCCCCCCc2ccccc2)c2ccccc12)N[*:1])[*:2]; X1 = O=C([C@H](Cc1cn(CCCCCCCCc2ccccc2)cn1)N[*:1])[*:2]; pT = C[C@@H](OP(=O)(O)O)[C@H](N)C(=O)O

Target: Serine/threonine-protein kinase PLK1 (Homo sapiens, UniProt P53350)
Assay: Competitive binding affinity to GFP-HA-fused PLK1 polo box domain expressed in HEK293A cells using biotinylated p-T38 peptide as substrate after 1 hr by ELISA
Parameters: species or system HEK293-A

Sequence of Serine/threonine-protein kinase PLK1 (P53350 whole entry, the tested form may be a part): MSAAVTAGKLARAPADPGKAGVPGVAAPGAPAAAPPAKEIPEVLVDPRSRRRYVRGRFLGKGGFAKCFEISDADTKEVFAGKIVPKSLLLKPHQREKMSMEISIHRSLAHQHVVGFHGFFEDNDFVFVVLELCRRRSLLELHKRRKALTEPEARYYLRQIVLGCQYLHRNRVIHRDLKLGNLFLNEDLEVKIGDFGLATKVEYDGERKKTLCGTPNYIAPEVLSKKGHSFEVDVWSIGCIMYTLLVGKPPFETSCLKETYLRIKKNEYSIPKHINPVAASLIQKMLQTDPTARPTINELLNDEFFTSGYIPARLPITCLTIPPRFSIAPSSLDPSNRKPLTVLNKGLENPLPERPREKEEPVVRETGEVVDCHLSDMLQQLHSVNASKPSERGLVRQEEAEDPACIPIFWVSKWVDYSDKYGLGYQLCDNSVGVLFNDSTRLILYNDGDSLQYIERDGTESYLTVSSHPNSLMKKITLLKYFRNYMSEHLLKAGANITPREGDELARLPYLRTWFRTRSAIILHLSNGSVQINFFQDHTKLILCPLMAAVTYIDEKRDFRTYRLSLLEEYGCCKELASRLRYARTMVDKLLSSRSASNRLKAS

`CC(=O)N1CCC[C@H]1C(=O)N[C@@H](CC(C)C)C(=O)N[C@@H](Cc1cn(CCCCCCCCc2ccccc2)cn1)C(=O)N[C@@H](CO)C(=O)N[C@H](C(N)=O)[C@@H](C)OP(=O)(O)O` (Ac-PL[X1]S[pT]-NH2) was tested, and the IC50 was 0.32 µM.
For `CC(=O)N1CCC[C@H]1C(=O)N[C@@H](CC(C)C)C(=O)N[C@@H](Cc1cn(CCCCCCCCc2ccccc2)c2ccccc12)C(=O)N[C@@H](CO)C(=O)N[C@H](C(N)=O)[C@@H](C)OP(=O)(O)O` (Ac-PL[X2]S[pT]-NH2), the IC50 was 9.3 µM.
